According to patent US4120894A, “Sulfo-m-phenylenebis(sulfonylimino)diisophthalic acid salts” (American Cyanamid Company, priority 1977, dated 1978):
Where a name gives a salt, the structure may show the parent alone.

How the values were obtained:
[1] = test system: hereditary angioneurotic edema; conditions: literature report; cited from earlier work
human serum complement = conditions: in vitro and in vivo, judged by reduction in total hemolytic complement activity; cited from earlier work
complement system = conditions: literature report; cited from earlier work
activated human C1 = test: Test, Code 026 (C1 inhibitor); format: biochemical; conditions: activity in wells, two-fold serial dilution assay; higher well number indicates higher activity
From the text: (§1) An active inhibitor protects C2 C1 and C4; (ii) Test, Code 035 (C3-C9 inhibitor) -- This test determines the ability of thee late components of human complement (C3-C9) to lyse EAC 142 in the presence of appropriate dilutions of the test compound. An active inhibitor protects EAC 142 from lysis by human C3-C9; (iii) Test, Code 036 (C-Shunt inhibitor) -- In this test human erythrocytes rendered fragile are lysed in autologous serum via the shunt pathway activated by cobra venom factor in the present of appropriate dilutions of the test compound. Inhibition of the shunt pathway results in failure of lysis; (iv) Forssman Vasculitis Test -- Here, the well known complement dependent lesion, Forssman vasculitis, is produced in guinea pigs by intradermal injection of rabbit anti-Forssman antiserum. […]

shunt pathway = test: Test, Code 036 (C-Shunt inhibitor), lysis of human erythrocytes in autologous serum via shunt pathway activated by cobra venom factor; format: cell-based; conditions: activity in wells, two-fold serial dilution assay; higher well number indicates higher activity
From the text: as §1

whole complement = test: Complement Level Reduction Test (serum of dosed guinea pigs, capillary tube assay); format: in vivo; conditions: 200 mg/kg i.p.

Compound	treatment of hereditary angioneurotic edema [1]	anticomplementary effect / complement inhibition (complement system)	further results
NCCCCCC(=O)O [epsilon-aminocaproic acid]	used with success	–	–
pentosan-poly-sulfoester	–	–	anticomplementary activity on human serum (human serum complement): anticomplementary activity on human serum both in vitro and in vivo
Cc1ccc(C(=O)Nc2ccc(S(=O)(=O)O)c3cc(S(=O)(=O)O)cc(S(=O)(=O)O)c23)cc1NC(=O)c1cccc(NC(=O)Nc2cccc(C(=O)Nc3cc(C(=O)Nc4ccc(S(=O)(=O)O)c5cc(S(=O)(=O)O)cc(S(=O)(=O)O)c45)ccc3C)c2)c1 [Suramin]	used with success	competitive inhibitor of the complement system	–
heparin	–	anticomplementary effect	–
NC[C@H]1CC[C@H](C(=O)O)CC1 [tranexamic acid]	used with success	–	–
O=C(O)c1cc(NS(=O)(=O)c2cc(S(=O)(=O)O)cc(S(=O)(=O)Nc3cc(C(=O)O)cc(C(=O)O)c3)c2)cc(C(=O)O)c1 [5,5'[5-Sulfo-m-phenylenebis(sulfonylimino)]diisophathalic acid sodium salt, compound with ethanol (1:1)]	–	–	C1 026 Wells (activated human C1): +4 Wells; Shunt Inhibition 036 Wells (shunt pathway): +1 Wells; In Vivo Activity (Guinea Pig) % Inhibition, Intraperitoneal, 30 minutes (whole complement; 30 min): -44%; In Vivo Activity (Guinea Pig) % Inhibition, Intraperitoneal, 60 minutes (whole complement; 60 min): -42%; In Vivo Activity (Guinea Pig) % Inhibition, Intraperitoneal, 120 minutes (whole complement; 120 min): -49%
Nc1ccc2cc(S(=O)(=O)O)cc(O)c2c1N=Nc1ccc(NC(=O)Nc2ccc(N=Nc3c(N)ccc4cc(S(=O)(=O)O)cc(O)c34)c(S(=O)(=O)O)c2)cc1S(=O)(=O)O [chlorazol fast pink, 3,3'-ureylenebis-[6-(2-amino-8-hydroxy-6-sulfo-1-naphthylazo)]benzenesulfonic acid, tetrasodium salt]	–	anticomplementary effect	–
